Reference: patent US8765721B2, “Composition comprising phosphatidyl serine and an antigen or allergen and the use thereof” (Vaccine Technology Limited, priority 2004, dated 2014)

Columns and labels:
Type in all cases: in vivo, rat
IgA [1] = assay: Ovalbumin-specific IgA ELISA of serum of immunised rats; conditions: pooled group serum
Description: (§1) Rats were injected with vaccine compositions comprising the ovalbumin antigen with and without di-oleoyl phosphatidyl serine, lyso-oleoyl phosphatidyl serine or stearoyl(X1)-arachidonoyl(X2) phosphatidyl serine and the concentrations of IgE, IgA and IgG are compared.
(§2) The animals were acclimatised for a period of 5 days prior to dosing. During the acclimatisation period animals were observed twice daily during the working week and once on each day during the weekend to evaluate the health status of the animals. Rats were then allocated to the following dose groups using computer-generated random order numbers.
(§3) On day 0, 20 μg of ovalbumin (OA) in phosphate buffered saline (PBS) with alhydrogel (AHG) adjuvant in a final volume of 0.5 mL was administered.
(§4) On days 21 and 42, 20 μg of ovalbumin (OA) in phosphate buffered saline (PBS) with the relevant test compound in a final volume of 0.5 ml was administered.
(§5) In each case, 0.5 mL of inoculum was injected subcutaneously into the scruff of the neck.
On Day 0 a pre-inoculation blood sample was taken. A blood sample was also taken from each animal on Days 15, 22, 29, 36, 43, 50, 57 and 64.
(§6) Serum was prepared by centrifugation of the blood sample at 2,500 rpm for 10 minutes and frozen at −20° C. The samples were then analysed by ELISA to establish the concentration of IgE, IgA and IgG1, IgG2a and IgG2b.
(§7) The purpose of an ELISA is to determine whether a particular protein is present in a sample and then enables quantification of how much is present. By coating the bottom of wells with ovalbumin (OVA) it is possible to bind anti-OVA specific antibodies. To detect only anti-OVA IgA antibodies anti-rat IgA conjugated to HRP was used as a secondary antibody. Quantification of specific antibodies in the rat sera samples was performed using antibody titrations. The data was reported as endpoint titers. Endpoint titers are defined as the last serum dilution giving an optical density value equal to twice the background optical density for the ELISA plate (buffer).

IgE [2] = assay: Ovalbumin-specific IgE ELISA of serum of immunised rats; conditions: pooled group serum
Description: as §1, §2, §3, §4, §5
(§8) […] A blood sample was also taken from each animal on Days 15, 22, 29, 36, 43, 50, 57 and 64.
as §6, §7

IgA [3] = assay: Ovalbumin-specific IgA ELISA of serum of immunised rats; conditions: Day 1; 50 ug with 20 μg Ova s.c. on days 21 and 42; pooled group serum
IgG1 = assay: Ovalbumin-specific IgG1 ELISA of serum of immunised rats; conditions: pooled group serum
Description: as §1, §2, §3, §4
(§9) In each case, 0.5 mL of inoculum was injected subcutaneously into the scruff of the neck. […]
as §6
The purpose of an ELISA is to determine whether a particular protein is present in a sample and then enables quantification of how much is present. By coating the bottom of wells with ovalbumin (OVA) it is possible to bind anti-OVA specific antibodies. […] Quantification of specific antibodies in the rat sera samples was performed using antibody titrations. The data was reported as endpoint titers. Endpoint titers are defined as the last serum dilution giving an optical density value equal to twice the background optical density for the ELISA plate (buffer).

IgE [4] = assay: Ovalbumin-specific IgE ELISA of serum of immunised rats; conditions: Day 1; 250 ug with 20 μg Ova s.c. on days 21 and 42; pooled group serum
IgG2b = assay: Ovalbumin-specific IgG2b ELISA of serum of immunised rats; conditions: pooled group serum
Description: as §1, §2, §3, §4, §5, §8, §6, §7

IgG2a = assay: Ovalbumin-specific IgG2a ELISA of serum of immunised rats; conditions: pooled group serum
Description: as §1, §2, §3, §4, §9, §6, §7

[5] = Day 1, 250 ug with 20 μg Ova s.c. on days 21 and 42
[6] = Day 15, 50 ug with 20 μg Ova s.c. on days 21 and 42
[7] = Day 15, 250 ug with 20 μg Ova s.c. on days 21 and 42
[8] = Day 22, 50 ug with 20 μg Ova s.c. on days 21 and 42
[9] = Day 22, 250 ug with 20 μg Ova s.c. on days 21 and 42
[10] = Day 29, 50 ug with 20 μg Ova s.c. on days 21 and 42
[11] = Day 29, 250 ug with 20 μg Ova s.c. on days 21 and 42
[12] = Day 36, 50 ug with 20 μg Ova s.c. on days 21 and 42
[13] = Day 36, 250 ug with 20 μg Ova s.c. on days 21 and 42
[14] = Day 43, 50 ug with 20 μg Ova s.c. on days 21 and 42
[15] = Day 43, 250 ug with 20 μg Ova s.c. on days 21 and 42
[16] = Day 50, 50 ug with 20 μg Ova s.c. on days 21 and 42
[17] = Day 50, 250 ug with 20 μg Ova s.c. on days 21 and 42
[18] = Day 57, 50 ug with 20 μg Ova s.c. on days 21 and 42
[19] = Day 57, 250 ug with 20 μg Ova s.c. on days 21 and 42
[20] = Day 64, 50 ug with 20 μg Ova s.c. on days 21 and 42
[21] = Day 64, 250 ug with 20 μg Ova s.c. on days 21 and 42
[22] = Day 1, 50 ug with 20 μg Ova s.c. on days 21 and 42

Work on `CCCCCCCC/C=C\CCCCCCCC(=O)OC[C@@H](O)COP(=O)(O)OC[C@H](N)C(=O)O` [VT002, Lyso oleoyl phosphatidyl serine] yielded an IgA endpoint titer (IgA [1]; [5]) of 0, an IgA endpoint titer (IgA [1]; [6]) of 0 and an IgA endpoint titer (IgA [1]; [7]) of 0. The IgA endpoint titer (IgA [1]; [8]) was 0, the IgA endpoint titer (IgA [1]; [9]) was 0 and the IgA endpoint titer (IgA [1]; [10]) was 0. It also gave an IgA endpoint titer (IgA [1]; [11]) of 0, an IgA endpoint titer (IgA [1]; [12]) of 160 and an IgA endpoint titer (IgA [1]; [13]) of 80. For the same compound, the IgA endpoint titer (IgA [1]; [14]) was 320, the IgA endpoint titer (IgA [1]; [15]) was 160 and the IgA endpoint titer (IgA [1]; [16]) was 2560. The IgA endpoint titer (IgA [1]; [17]) was 1280, the IgA endpoint titer (IgA [1]; [18]) was 1280 and the IgA endpoint titer (IgA [1]; [19]) was 1280. The IgA endpoint titer (IgA [1]; [20]) was 2560, the IgA endpoint titer (IgA [1]; [21]) was 1280 and the IgE endpoint titer (IgE [2]; [22]) was 0. The IgE endpoint titer (IgE [2]; [6]) was 0, the IgE endpoint titer (IgE [2]; [7]) was 0 and the IgE endpoint titer (IgE [2]; [8]) was 0. The IgE endpoint titer (IgE [2]; [9]) was 0, the IgE endpoint titer (IgE [2]; [10]) was 80 and the IgE endpoint titer (IgE [2]; [11]) was 0. For the same compound, the IgE endpoint titer (IgE [2]; [12]) was 40, the IgE endpoint titer (IgE [2]; [13]) was 20 and the IgE endpoint titer (IgE [2]; [14]) was 80. The IgE endpoint titer (IgE [2]; [15]) was 40, the IgE endpoint titer (IgE [2]; [16]) was 1280 and the IgE endpoint titer (IgE [2]; [17]) was 640. The IgE endpoint titer (IgE [2]; [18]) was 320, the IgE endpoint titer (IgE [2]; [19]) was 160 and the IgE endpoint titer (IgE [2]; [20]) was 160. For the same compound, the IgE endpoint titer (IgE [2]; [21]) was 160, the IgA endpoint titer (IgA [3]) was 0 and the IgG1 endpoint titer (IgG1; [22]) was 0. For the same compound, the IgG1 endpoint titer (IgG1; [5]) was 0, the IgG1 endpoint titer (IgG1; [6]) was 320 and the IgG1 endpoint titer (IgG1; [7]) was 640. It also gave an IgG1 endpoint titer (IgG1; [8]) of 2560, an IgG1 endpoint titer (IgG1; [9]) of 2560 and an IgG1 endpoint titer (IgG1; [10]) of 10240. It also gave an IgG1 endpoint titer (IgG1; [11]) of 5120, an IgG1 endpoint titer (IgG1; [12]) of 20480 and an IgG1 endpoint titer (IgG1; [13]) of 20480. It also gave an IgG1 endpoint titer (IgG1; [14]) of 20480, an IgG1 endpoint titer (IgG1; [15]) of 10240 and an IgG1 endpoint titer (IgG1; [16]) of 40960. It also gave an IgG1 endpoint titer (IgG1; [17]) of 20480, an IgG1 endpoint titer (IgG1; [18]) of 40960 and an IgG1 endpoint titer (IgG1; [19]) of 40960. For the same compound, the IgG1 endpoint titer (IgG1; [20]) was 40960, the IgG1 endpoint titer (IgG1; [21]) was 40960 and the IgE endpoint titer (IgE [4]) was 0. It also gave an IgG2b endpoint titer (IgG2b; [22]) of 0, an IgG2b endpoint titer (IgG2b; [5]) of 0 and an IgG2b endpoint titer (IgG2b; [6]) of 0. The IgG2b endpoint titer (IgG2b; [7]) was 40, the IgG2b endpoint titer (IgG2b; [8]) was 0 and the IgG2b endpoint titer (IgG2b; [9]) was 80. For the same compound, the IgG2b endpoint titer (IgG2b; [10]) was 160, the IgG2b endpoint titer (IgG2b; [11]) was 40 and the IgG2b endpoint titer (IgG2b; [12]) was 320. For the same compound, the IgG2b endpoint titer (IgG2b; [13]) was 320, the IgG2b endpoint titer (IgG2b; [14]) was 640 and the IgG2b endpoint titer (IgG2b; [15]) was 640. It also gave an IgG2b endpoint titer (IgG2b; [16]) of 640, an IgG2b endpoint titer (IgG2b; [17]) of 5120 and an IgG2b endpoint titer (IgG2b; [18]) of 2560. It also gave an IgG2b endpoint titer (IgG2b; [19]) of 5120, an IgG2b endpoint titer (IgG2b; [20]) of 1280 and an IgG2b endpoint titer (IgG2b; [21]) of 2560. The IgG2a endpoint titer (IgG2a; [22]) was 0, the IgG2a endpoint titer (IgG2a; [5]) was 0 and the IgG2a endpoint titer (IgG2a; [6]) was 40. For the same compound, the IgG2a endpoint titer (IgG2a; [7]) was 80, the IgG2a endpoint titer (IgG2a; [8]) was 1280 and the IgG2a endpoint titer (IgG2a; [9]) was 640. It also gave an IgG2a endpoint titer (IgG2a; [10]) of 2560, an IgG2a endpoint titer (IgG2a; [11]) of 1280 and an IgG2a endpoint titer (IgG2a; [12]) of 5120. It also gave an IgG2a endpoint titer (IgG2a; [13]) of 2560, an IgG2a endpoint titer (IgG2a; [14]) of 5120 and an IgG2a endpoint titer (IgG2a; [15]) of 2560. For the same compound, the IgG2a endpoint titer (IgG2a; [16]) was 20480, the IgG2a endpoint titer (IgG2a; [17]) was 20480 and the IgG2a endpoint titer (IgG2a; [18]) was 20480. For the same compound, the IgG2a endpoint titer (IgG2a; [19]) was 20480, the IgG2a endpoint titer (IgG2a; [20]) was 20480 and the IgG2a endpoint titer (IgG2a; [21]) was 20480.
